Test results: patent US10563263B2, “Genetic polymorphisms associated with statin response and cardiovascular diseases, methods of detection and uses thereof” (CELERA CORPORATION, priority 2010, dated 2020)

Test system: CHD
Assay: Meta-analysis of CARE and WOSCOPS combined, synergy index, CHD endpoint
Format: in vivo, human
Source text: Tables 4-5 provide meta-analyses of CARE and WOSCOPS combined (2nd section of each table) for two endpoints (CHD and CVD) and three genetic models (dominant, recessive, and additive), as well as logistic regression analyses of CARE (3rd section of each table) and WOSCOPS (4th section of each table) individually.
Tables 12 and 17 provide results of meta-analysis of the CARE and WOSCOPS sample sets combined by direct genotyping and by imputing genotypes.
“P” indicates the p-value, and “P(R)” (or “P.R.”) indicates the p-value random effect. Both of these are p-values corresponding to a statistical test of whether the combined synergy index is equal to one but use different assumptions to derive the p-value. “P” is calculated using a fixed effects model, and “P(R)” is calculated using a random effects model.
“OR” indicates the odds ratio (synergy index) calculated from a fixed effects model, and “OR(R)” (or “OR.R.”) indicates the odds ratio (synergy index) calculated from a random effects model.

[1] = rs10105871 allele C DOMINANT Imputed
[2] = rs10116807 allele A GENOTYPIC Imputed
[3] = rs11178575 allele C GENOTYPIC Imputed
[4] = rs11178575 allele C RECESSIVE Imputed
[5] = rs11178577 allele T GENOTYPIC Imputed
[6] = rs11178577 allele T RECESSIVE Imputed
[7] = rs11178583 allele A DOMINANT Imputed
[8] = rs11178589 allele T DOMINANT Imputed
[9] = rs11178594 allele C DOMINANT Imputed
[10] = rs11178602 allele T DOMINANT Imputed
[11] = rs11178648 allele T DOMINANT Imputed
[12] = rs11198877 allele T DOMINANT Imputed
[13] = rs11198942 allele T DOMINANT Imputed
[14] = rs11221075 allele A ADDITIVE Imputed
[15] = rs11242020 allele T DOMINANT Imputed
[16] = rs11242021 allele T DOMINANT Imputed
[17] = rs11242022 allele T DOMINANT Imputed
[18] = rs11242023 allele T DOMINANT Imputed
[19] = rs11576627 allele T ADDITIVE Imputed
[20] = rs11576627 allele T DOMINANT Imputed
[21] = rs11602189 allele A DOMINANT Imputed
[22] = rs11605163 allele A DOMINANT Imputed
[23] = rs11615214 allele G ADDITIVE Imputed
[24] = rs11615214 allele G GENOTYPIC Imputed
[25] = rs11642394 allele C DOMINANT Imputed
[26] = rs11644943 allele A ADDITIVE Imputed
[27] = rs11656608 allele T DOMINANT Imputed
[28] = rs11661309 allele A ADDITIVE Imputed
[29] = rs11661309 allele A DOMINANT Imputed
[30] = rs11666131 allele A ADDITIVE Imputed

## CC[C@H](C)C(=O)O[C@H]1C[C@H](O)C=C2C=C[C@H](C)[C@H](CC[C@@H](O)C[C@@H](O)CC(=O)O)[C@H]21 [Pravastatin, pravastatin]
rs10067895 allele A DOMINANT Imputed
  OR(R): 0.5759
rs10088505 allele A vs G (ref)
  Meta-analysis OR: 1.61
rs10088524, allele A1 G (non-ref), A2 A (ref), endpoint/model not given
  Meta-analysis OR: 1.57
rs10103297, allele A1 A (non-ref), A2 G (ref), endpoint/model not given
  Meta-analysis OR: 2.03
[1]
  OR: 1.6092
  OR(R): 1.6092
[2]
  OR: 3.0952
  OR(R): 3.0952
rs10120126 allele G vs A (ref)
  Meta-analysis OR: 0.51
rs10189905 allele C vs A (ref)
  Meta-analysis OR: 0.52
rs10500736 allele G vs A (ref)
  Meta-analysis OR: 0.57
rs10517923 allele A vs G (ref)
  Meta-analysis OR: 1.61
rs10814422 allele G vs A (ref)
  Meta-analysis OR: 0.57
rs10849442 allele A vs G (ref)
  Meta-analysis OR: 0.57
rs10875941, allele A1 G (non-ref), A2 A (ref), endpoint/model not given
  Meta-analysis OR: 0.63
rs10973013 allele A vs G (ref)
  Meta-analysis OR: 0.55
rs11076320 allele C vs A (ref)
  Meta-analysis OR: 0.65
rs11082492 allele A vs C (ref)
  Meta-analysis OR: 1.55
[3]
  OR: 1.8735
  OR(R): 1.8735
[4]
  OR: 1.8848
  OR(R): 1.8848
[5]
  OR: 1.87
  OR(R): 1.87
[6]
  OR: 1.8884
  OR(R): 1.8884
[7]
  OR: 0.5918
  OR(R): 0.5918
[8]
  OR: 0.6108
  OR(R): 0.6108
[9]
  OR: 0.5951
  OR(R): 0.5951
[10]
  OR: 0.5942
  OR(R): 0.5942
[11]
  OR: 0.576
  OR(R): 0.576
[12]
  OR: 1.6068
  OR(R): 1.5927
[13]
  OR: 1.6276
  OR(R): 1.6227
[14]
  OR: 0.6561
  OR(R): 0.6561
[15]
  OR: 0.5675
  OR(R): 0.5675
[16]
  OR: 0.5753
  OR(R): 0.5753
[17]
  OR: 0.5805
  OR(R): 0.5805
[18]
  OR: 0.5807
  OR(R): 0.5807
[19]
  OR: 1.6268
  OR(R): 1.6268
[20]
  OR: 1.7055
  OR(R): 1.7055
[21]
  OR: 0.6007
  OR(R): 0.6007
[22]
  OR: 2.1075
  OR(R): 2.1075
[23]
  OR: 0.6853
  OR(R): 0.6853
[24]
  OR: 0.4648
  OR(R): 0.4738
[25]
  OR: 1.4572
  OR(R): 1.4572
[26]
  OR: 1.4247
  OR(R): 1.4247
[27]
  OR: 0.6695
  OR(R): 0.6695
[28]
  OR: 0.6163
  OR(R): 0.6163
[29]
  OR: 0.5852
  OR(R): 0.5852
[30]
  OR: 1.5364
  OR(R): 1.5364
rs11743355 allele C ADDITIVE Imputed
  OR: 0.1796
